The values that follow come from US20050080113A1, “Medicinal compositions” (priority 2001, published 2005).

One data set concerns the target T1, human p38 MAP kinase (Homo sapiens, UniProt Q16539).
T1 construct: made in house; host or cells: Sf-21 insect cells, baculovirus (BAC-HP38 co-infected with BAC-caMKK3)
Nature of the data set: Measurement of the enzyme inhibitory activity of active form p38 MAP kinase, 32P uptake into Myelin Basic Protein (Reference Example C 1). Type of data set: biochemical. The conditions noted are these: Myelin Basic Protein substrate, 30° C., 60 minutes, read-out: IC50 (concentration necessary for inhibiting uptake of 32P into an acid insoluble fraction by 50%). On the procedure:
The genetic manipulations described below were according to a method described in the book (Maniatis et al., Molecular Cloning, Cold Spring Harbor Laboratory, 1989) or methods described in the protocols attached to the reagents.
(1) Cloning of Human p38 MAP Kinase Gene and Preparation of Recombinant Baculovirus
Cloning of human p38 MAP kinase gene was performed by a PCR method using a primer set P38 U: 5′-[…] 3′ [SEQ ID NO:1] and PAG-L: 5′-[…]-3′ [SEQ ID NO:2] made by the use of kidney cDNA (Toyobo, QUICK-Clone cDNA) as a template and referring to the base sequence of p38 MAP kinase gene reported by Han et al. (Science 265 (5173), 808 811 (1994)).
A PCR reaction was performed by a Hot Start method using AmpliWax PCR Gem 100 (Takara Shuzo). As the lower mixed solution, 2 μL 10×LA PCR Buffer, 3 μL 2.5 mM dNTP solution, each 2.5 μL of 12.5 μM primer solutions, and 10 μL sterile distilled water were mixed. As the upper mixed solution, 1 μL human cardiac cDNA (1 ng/mL) as a template, 3 μL 10×LA PCR Buffer, 1 μL 2.5 mM dNTP solution, 0.5 μL TaKaRa LA Taq DNA polymerase (Takara Shuzo), and 24.5 μL sterile distilled water were mixed. One AmpliWax PCR Gem 100 (Takara Shuzo) was added to the prepared lower mixed solution and the mixture was treated at 70° C. for 5 min and for 5 min in an ice and, thereafter, the upper mixed solution was added to prepare a reaction solution for PCR. […]

T1 sequence (Q16539 whole entry): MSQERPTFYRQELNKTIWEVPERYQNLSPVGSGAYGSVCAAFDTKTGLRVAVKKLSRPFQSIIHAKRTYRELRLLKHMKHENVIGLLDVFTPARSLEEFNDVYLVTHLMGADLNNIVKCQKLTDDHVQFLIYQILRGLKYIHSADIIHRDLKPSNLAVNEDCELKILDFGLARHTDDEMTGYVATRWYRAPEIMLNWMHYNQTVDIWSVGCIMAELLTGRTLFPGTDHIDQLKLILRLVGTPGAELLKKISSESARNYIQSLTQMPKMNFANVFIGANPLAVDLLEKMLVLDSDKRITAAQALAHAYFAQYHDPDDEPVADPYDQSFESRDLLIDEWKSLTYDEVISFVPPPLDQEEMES

With `CNc1nc(-c2ccc3c(c2)CCC3)c(-c2cccnc2)s1` [13-74], the melting point lay in the range of 172 to 173 °C. Also, the IC50 at human p38 MAP kinase was 630 nM.

The term melting point denotes the temperature of the solid-liquid transition.
